From the NIST ThermoML archive (doi:10.1021/je9002948)

Assays:
[1] = molar heat capacity at constant pressure; conditions: 101.33 kPa, Liquid, Small sample (50 mg) DSC
[2] = molar heat capacity at constant pressure; wn = mass fraction of the nth substance listed; conditions: 101 kPa, Liquid, Small sample (50 mg) DSC

O [water]
[1]
Conditions | molar heat capacity at constant pressure [J/K/mol]
303.15 K | 75.29
308.15 K | 75.36
313.15 K | 75.38
318.15 K | 75.39
323.15 K | 75.39
328.15 K | 75.39
333.15 K | 75.41
338.15 K | 75.41
343.15 K | 75.43
348.15 K | 75.45
353.15 K | 75.48

NCC(=O)[O-].[Na+] [sodium glycinate] + O
molar heat capacity at constant pressure [J/K/mol], [2]
Conditions | 298.15 K | 303.15 K | 308.15 K | 313.15 K | 318.15 K | 323.15 K
w1 = 0.01 | 75.2 | 75.21 | 75.25 | 75.32 | 75.4 | 75.41
w1 = 0.05 | 76.7 | 76.72 | 76.77 | 76.85 | 76.92 | 77.05
w1 = 0.1 | 77.39 | 77.41 | 77.47 | 77.53 | 77.59 | 77.67
w1 = 0.15 | 78.81 | 78.85 | 78.91 | 78.99 | 79.07 | 79.2
w1 = 0.2 | 78.23 | 78.79 | 79.45 | 80.12 | 80.77 | 81.48
w1 = 0.3 | 80.84 | 81.46 | 82.1 | 82.75 | 83.44 | 84.11
